Experiments:
5-HT2A = 5-HT2A (Homo sapiens, UniProt P28223); details: cited from earlier work
IL-13 = assay: plasma IL-13 in normal unstimulated rats, bead-based multiplex immunoassay (Luminex); type: in vivo; details: 1 and 5 mg/kg oral twice daily for 7 days, blood approximately 4 hours after last dose
Method: (§1) The effects of irindalone were also investigated in normal unstimulated rats that were subject to twice-daily oral dosing with irindalone (1 and 5 mg/kg) for 7 consecutive days. Blood was collected approximately 4 hours after administration of the last dose, plasma was prepared and cytokines were measured using a bead-based multiplex immunoassay (Luminex Corp.).

TNF-α = assay: LPS-induced plasma TNF-α, bead-based immunoassay (Luminex); type: in vivo, mice; details: 2-hour time point post-LPS; mouse plasma
Method: (§2) The intriguing bi-phasic modulation of NF-κB activation described in Example 1 was further investigated by repeating the LPS induction experiment and performing subsequent imaging analysis at 0 hour and 2, 4, 6 and 24 hours post-LPS treatment. Moreover, blood samples were collected at each of the timepoints and plasma was prepared for evaluation of effects of irindalone on quantities of circulating cytokines. […] Specifically, irindalone suppressed LPS-induced pro-inflammatory cytokines eotaxin (FIG. 3A) and TNF-α (FIG. 3B) at the 2-hour time point and IL-1α at both 2 hours and 6 hours post-LPS injection (FIG. 3C).

IL-1α = assay: LPS-induced plasma IL-1α, bead-based immunoassay (Luminex); type: in vivo, mice; details: mouse plasma
Method: as §2

NF-κB [1] = assay: LPS-induced NF-κB activation in harvested organs and tissues (luciferase/protein assay) of NF-κB:LUC transgenic mice; type: in vivo; details: 10 mg/kg p.o. one hour prior to LPS 2.5 mg/kg i.v.; 2 hours post-LPS; most pronounced changes in visceral fat, gastrointestinal tract and brain
Method: To determine whether these effects can be localized to a particular tissue or organ system, additional experimentation was performed (similar in design to that as described in Example 1). For these studies, male mice (n=5 per group) were administered irindalone (0 and 10 mg/kg, p.o.) one hour prior to injection with LPS (2.5 mg/kg, i.v.). Whole body images were obtained prior to drug pretreatment (0 hour) and again at 2 hours post-LPS treatment (data not shown). A broad collection of internal tissues and organs were then removed and snap frozen for further analysis. Specifically, harvested tissues were homogenized, cells were lysed and utilized for luciferase and protein quantification assays to obtain relative units of light/μg protein. Results (FIG. 4) illustrate normalized comparisons between LPS alone versus irindalone+LPS.

histamine H1 receptor = histamine H1 receptor (Homo sapiens, UniProt P35367); details: compared with its 5-HT2A affinity; cited from earlier work
histamine H1 receptor, sequence (P35367 whole entry, species assumed): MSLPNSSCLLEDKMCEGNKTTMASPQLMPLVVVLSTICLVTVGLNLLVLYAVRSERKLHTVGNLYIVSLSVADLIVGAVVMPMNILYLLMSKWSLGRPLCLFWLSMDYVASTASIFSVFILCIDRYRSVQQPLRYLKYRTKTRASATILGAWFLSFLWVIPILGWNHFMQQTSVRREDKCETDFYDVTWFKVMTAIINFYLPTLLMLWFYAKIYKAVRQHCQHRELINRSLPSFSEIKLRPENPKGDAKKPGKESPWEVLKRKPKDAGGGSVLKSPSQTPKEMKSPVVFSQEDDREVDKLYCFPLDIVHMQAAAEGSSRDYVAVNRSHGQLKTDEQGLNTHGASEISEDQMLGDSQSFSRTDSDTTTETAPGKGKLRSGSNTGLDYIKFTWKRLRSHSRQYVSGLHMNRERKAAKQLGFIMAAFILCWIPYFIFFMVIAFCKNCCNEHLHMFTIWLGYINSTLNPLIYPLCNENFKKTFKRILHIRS

HO-1 promoter = assay: CdCl2-induced HO-1:LUC promoter activation in HO-1:LUC transgenic mice; type: in vivo
Source text: The HO-1 luciferase transgenic mouse line was constructed using 15,000 base pairs of the HO-1 promoter fused to a firefly luciferase reporter. The HO-1 promoter is highly responsive to oxidative stress, hypoxia and other stimuli that influence the oxidative state of the animal. Increased expression of the HO-1 pathway limits tissue damage in response to a wide variety of proinflammatory stimuli associated with oxidative stress including hypoxia, hyperoxia, cytokines, nitric oxide (NO), heavy metals, ultraviolet-A radiation, heat shock, shear stress, hydrogen peroxide, and thiol (—SH)-reactive substances, endotoxin, allograft rejection, etc. This promoter region has several enhancer sequences that confer responsiveness to the wide set of stimuli mentioned above. In this mouse model, luciferase expression is an indicator of the induction of the HO-1 promoter/gene expression. In order to assess the ability of irindalone to modulate the oxidative state of mice stressed with cadmium chloride (CdCl2), male mice (n=5 per group) were dosed with irindalone (0, 1 or 10 mg/kg, p.o.) one hour prior to injection with CdCl2 (2 mg/kg, i.v.). Whole body images were obtained prior to irindalone pretreatment (0 hour) and again at 4, 6, and 24 hours post-CdCl2 treatment. Irindalone suppressed CdCl2-induced luciferase expression (FIG. 6). […] Additional anatomical regions also posted trends in suppression at early time points.

eotaxin = assay: LPS-induced plasma eotaxin, bead-based immunoassay (Luminex); type: in vivo, mice; details: 2-hour time point post-LPS; mouse plasma
Method: as §2

adrenergic receptor al = details: compared with its 5-HT2A affinity; cited from earlier work
AP-1 = assay: TPA-induced AP-1:LUC reporter activation in skin of AP-1:LUC transgenic mice; type: in vivo; details: irindalone 1 and 10 mg/kg p.o. (dose-dependent) or DEX 4.5 mg/kg i.p. one hour prior to topical TPA 10 μg
Method: The AP-1:LUC transgenic line was constructed with four copies of the AP-1 response element fused to a firefly luciferase reporter. […] For the current studies, the backs of mice (n=5 per group) were shaved (area size approximately 1.5×3 cm) and pre-imaged. Mice were administered vehicle (saline), irindalone (dosing at 1 and 10 mg/kg; p.o.) or dexamethasone as a positive control (DEX, 4.5 mg/kg, i.p.) one hour prior to topical application of the phorbol ester 12-O-tetradecanoyl-phorbol-13-acetate (TPA, 0.05 mg/ml in acetone; total dose 10 μg).

CXCL1 (GRO/KC) = assay: plasma CXCL1 (GRO/KC) in normal unstimulated rats, bead-based multiplex immunoassay (Luminex); type: in vivo; details: 1 and 5 mg/kg oral twice daily for 7 days, blood approximately 4 hours after last dose, not dose-proportionately
Method: as §1

NF-κB [2] = assay: in vivo imaging of LPS-induced NF-κB:luciferase reporter activation in NF-κB:LUC transgenic mice; details: for LPS-induced NF-κB reporter (fold change from 0 hour), Example 1: 1 or 10 mg/kg p.o. one hour prior to sLPS 2.5 mg/kg i.v., whole body imaging; for LPS-induced NF-κB activation, Example 2 (FIG. 2): repeat experiment
Method: Effects of irindalone on rodent physiological processes were evaluated using bio-photonic in vivo imaging. Specifically, this technology was used to investigate temporal and spatial modulation of physiological processes following acute compound administration. Transgenic mice expressing a firefly luciferase reporter driven by a series of promoters that represent a wide spectrum of potential disease states were used. Light emitted by luciferase in the presence of a luciferin substrate was detected and analyzed using a highly sensitive CCD imaging system. Mice were anesthetized and imaged at the indicated time points followed by visual and quantitative analysis based on counting photons of light emitted from specific regions of interest. Observations were followed by confirmatory and additional heuristic studies, including direct measurement of luciferase activity in harvested tissues and organs. As detailed below, the properties of irindalone were analyzed on three distinct transgenic lines, NF-κB:LUC, AP-1:LUC and HO-1:LUC. For this Example, the NF-κB transgenic mouse line was constructed using three NF-κB response elements fused to a firefly luciferase reporter. The effect of acute compound administration on inflammatory and immunomodulatory processes was monitored using activation of the luciferase reporter as a surrogate readout for activation of NF-κB transcription factor. […] For these studies, male mice (n=5 per group) were administered irindalone (0, 1 or 10 mg/kg, p.o.) one hour prior to injection with soluble lipopolysaccharide (sLPS, 2.5 mg/kg, i.v.). Whole body images were obtained prior to drug pretreatment (0 hour time point) and again at 2, 4, and 6 hours post-LPS treatment. […] The intriguing bi-phasic modulation of NF-κB activation described in Example 1 was further investigated by repeating the LPS induction experiment and performing subsequent imaging analysis at 0 hour and 2, 4, 6 and 24 hours post-LPS treatment. Moreover, blood samples were collected at each of the timepoints and plasma was prepared for evaluation of effects of irindalone on quantities of circulating cytokines.

IL-10 = assay: LPS-induced plasma IL-10, bead-based immunoassay (Luminex); type: in vivo, mice; details: all time points measured (2, 4, 6, 24 hours post-LPS), most pronounced at 2 and 4 hours; mouse plasma
Method: as §2

5-HT2A, sequence (P28223 whole entry, species assumed): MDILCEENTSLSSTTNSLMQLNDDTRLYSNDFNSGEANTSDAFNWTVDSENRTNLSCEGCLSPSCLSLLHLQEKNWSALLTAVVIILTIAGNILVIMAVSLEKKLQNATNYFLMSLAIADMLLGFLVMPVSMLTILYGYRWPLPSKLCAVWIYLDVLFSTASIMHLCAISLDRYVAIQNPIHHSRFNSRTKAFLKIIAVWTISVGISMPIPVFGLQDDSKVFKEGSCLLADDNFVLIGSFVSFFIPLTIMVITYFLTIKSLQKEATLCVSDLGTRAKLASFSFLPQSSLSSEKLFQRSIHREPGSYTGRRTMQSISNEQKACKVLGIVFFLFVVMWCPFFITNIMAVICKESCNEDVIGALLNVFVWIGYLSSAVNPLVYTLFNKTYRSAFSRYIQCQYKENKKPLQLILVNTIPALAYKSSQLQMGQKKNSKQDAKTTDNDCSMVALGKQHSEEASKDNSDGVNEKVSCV

SMILES	5-HT2A affinity, in words (5-HT2A; compared with irindalone)	IL-13 levels in plasma compared to vehicle (IL-13)	IC50 (5-HT2A; read-out: affinity (IC50) for 5-HT2A)	LPS-induced TNF-α level in plasma (TNF-α)	LPS-induced IL-1α level in plasma (IL-1α; 2 hours post-LPS injection)	LPS-induced IL-1α level in plasma (IL-1α; 6 hours post-LPS injection)	LPS-induced NF-κB activation in harvested tissues (units of light/μg protein, normalized) (NF-κB [1])	affinity for histamine H1 receptor, in words (histamine H1 receptor)	CdCl2-induced luciferase expression (HO-1 promoter) (HO-1 promoter; 1 or 10 mg/kg p.o. one hour prior to CdCl2 2 mg/kg i.v., whole body images at 4, 6, 24 hours)	CdCl2-induced luciferase expression (HO-1 promoter), mid back region (HO-1 promoter; mid back region, all time points (4, 6, 24 hours))	CdCl2-induced luciferase expression (HO-1 promoter), sublingual and lower back regions (HO-1 promoter; sublingual and lower back regions, earlier time points)	LPS-induced eotaxin level in plasma (eotaxin)	affinity for adrenergic receptor al, in words (adrenergic receptor al)	TPA-induced AP-1 activation in skin (AP-1)	CXCL1 (GRO/KC) levels in plasma (CXCL1 (GRO/KC))	LPS-induced NF-κB reporter (fold change from 0 hour), Example 1 (NF-κB [2]; after 2 hours)	LPS-induced NF-κB reporter (fold change from 0 hour), Example 1 (NF-κB [2]; after 6 hours)	LPS-induced NF-κB activation, Example 2 (FIG. 2) (NF-κB [2]; early time point (2 hours) post-LPS)	LPS-induced NF-κB activation, Example 2 (FIG. 2) (NF-κB [2]; later time points (4, 6, 24 hours imaged) post-LPS)	anti-inflammatory cytokine IL-10 level in plasma (IL-10)
O=C1NCCN1CCN1CCN([C@H]2C[C@H](c3ccc(F)cc3)c3ccccc32)CC1 [Lu 21-099]	weaker 5-HT2A affinity																			
O=C1NCCN1CCN1CCN([C@@H]2C[C@@H](c3ccc(F)cc3)c3ccccc32)CC1 [Irindalone, (+)-(1R,3S)-1-[2-[4-[3-(p-fluorophenyl)-1-indanyl]-1-piperazinyl]-ethyl]-2-imidazolidinone]		increased	3.4 nM	suppressed	suppressed	suppressed	Tissue-Selective Effect	somewhat weaker affinity	suppressed	Dramatic suppression	Dramatic suppression	suppressed	somewhat weaker affinity	dramatically repressed	lowered	broad suppression	broad enhancement	suppression	enhancement	increase

Reference: patent publication US20100069400A1, “METHODS FOR TREATING INFLAMMATION AND RELATED CONDITIONS” (Ore Pharmaceuticals Inc., priority 2008, published 2010)
